According to US9320280B2, “Methods and compositions for deterring feeding/repelling the brown marmorated stink bug (BMSB), Halyomorpha halys” (The United States of America, as Represented by the …, priority 2012, dated 2016):
Entries after “also recorded” stand apart in the source; their conditions may differ.

Legend:
Halyomorpha halys [1] = conditions: for feeding on solvent-treated versus untreated green bean: starved adult males ages 3-7 days, 35 μl of solvent on 1-inch section of green bean
Procedure: We tested the effects of solvent on H. halys survival and feeding behavior to optimize the solvent used in petri dish assays. Mortality of 3rd stage nymphs, and adult males and females (ages 3-7 days or 13-23 days into adult stage), was quantified as the percentage of individuals who died after exposure to methylene chloride (DCM) after 2.25 hours. […] Insects were starved for 16-20 hours prior to being exposed to 1 inch cut sections of organic green beans in a 10 cm petri covered glass petri dish. One bean was coated with […] solvent while the other was untreated. Behaviors of young adult male individuals were recorded at three time points (45, 90, and 135 minutes) as feeding on the blank (untreated) bean, feeding on the odor (solvent-treated) bean, or sitting on the wall of the petri dish. Percent response for each choice was averaged over the three time periods.

Halyomorpha halys [2] = experiment: Optimized closed-air petri dish bioassay: feeding deterrence on green beans; assay type: in vivo; design: key to significance of repelling insect from treated bean relative to pentane control: p<0.05 (*); p<0.01 (**); p<0.001 (***); n.s.: compound tested was not significant in repelling insect from treated bean; conditions: for overall repellent effectiveness (conclusion): all age groups and sexes of H. halys
Procedure: Optimized petri dish bioassays: Insects tested were moved in groups from Thermo Forma cages to plastic petri dishes for food and water deprivation 16-20 hours before bioassays. Adults were separated by age and sex and held in groups of five, nymphs were held in groups of 20. Bioassays were conducted from April-June of 2012 between 8 a.m. and 4 p.m., in a fume hood lined with black paper and covered with black curtain to prevent external visual stimuli. The fume hood was illuminated by a single 60 watt light bulb with a light intensity of 800 LUX, placed 50 cm above bio assay arenas, with 26°-28° C. temperature and 50% relative humidity. Glass petri dishes (10 cm diameter) were used for the bioassay arena and were lined with Whatman's #1 filter paper (9 cm) that was changed before each assay. Adults were bioassayed individually. Nymphs were tested in groups of four because in preliminary assays they were observed continually walking for up to four hours unless conspecifics were present.
We then used the optimized solvent (i.e., pentane) to test the effects of different repellents on deterring H. halys feeding on organic green beans in petri dishes. Insects were tested in a glass Petri dish for their attraction/aversion to 1 μg and 100 μg concentrations of isolongifolanone and isolongifolenone (International Flavors and Fragrances, NY), C-13, and E-2-decenal, diluted in pentane. Pure pentane was tested as a control. Whatman's #1 filter paper (9 cm) was placed in petri dish and 2× one-inch diameter impressions were made with a metal circle. One circle was treated with 75 ul of pentane (control) and the other with pentane+repellant (treatment) and dried for five minutes. One-inch sections of organic green beans were placed over the treated or untreated circle. Starved insects were introduced to the petri dish assay arena and observed at three time points in 45 minute increments for 2.25 hours. Their location was recorded as feeding with stylet inserted on the treatment (i.e., odor) bean, blank bean, or off bean (i.e., walking off of food source or no movement in petri dish and not on bean). Individuals were only used for one bioassay at the adult or nymphal stage in their lifetime. Petri dishes were rinsed with water daily and baked overnight at 100° C., and were rinsed with acetone after every six uses.
Optimized petri dish bioassays were analyzed for each age group, sex, and treatment using Likelihood Ratio tests (JMP®). Percent response for each choice per compound was averaged over the three time periods observed. The likelihood of the three choices was set to the level determined by the pentane control for each age/sex group, and the confidence interval set at 95%. P-values are indicated as follows: *=0.05; **=0.01; ***=0.001.

Halyomorpha halys [3] = experiment: Open-air small cage bioassay: feeding deterrence/repellency on treated peaches and apples; assay type: in vivo; conditions: open-air system
Procedure: Small Cage Bioassays: Nymphs and adults were tested for effects of feeding deterrents/repellents from islongifolanone, islongifolenone, C-13, and E-2-decenal applied to organic peaches and gala apples in a small cage. Insects were starved for 16 hours prior to experiments before being transferred in groups of 15 (nymphs) or 10 (adults male or female) to two gallon containers containing one treated fruit, and observed hourly for the number of nymphs on the fruit. Experiments were conducted in a fume hood under the same light and heat conditions as above. Different concentrations of isolongifolanone, isolongifolenone, C-13, and E-2-decenal were tested both individually and combined (equal amount of each component), with a final concentration of 70-80 mg/fruit chosen as an effective treatment. Compounds (400 mg) were combined with the emulsifier Tween-80 (2 mg), mixed with water (H2O 10 ml) in glass vial (20 ml), and sonicated for 20 min. The solution containing emulsifier Tween-80 (2 mg) in 10 ml water was used as control. […]
Small cage bioassays were analyzed by replicate, treatment, and time using repeated measures ANOVA and multiple comparisons for treatments were tested using Tukeys HSD, Model: Nymphs on Fruit=Treatment, Rep (Treatment), Time, Treatment*Time.

[4] = Nymph (3rd stage), starved, 1 μg in pentane on filter paper under green bean
[5] = Nymph (3rd stage), starved, 100 μg in pentane on filter paper under green bean
[6] = Old Adult Male (13-23 days), 1 μg
[7] = Old Adult Male (13-23 days), 100 μg
[8] = Young Adult Male (3-7 days), 1 μg
[9] = Young Adult Male (3-7 days), 100 μg
[10] = old adult females, 100 μg, FIG. 6E
[11] = starved nymphs (3rd stage), 1 μg, FIG. 6A
[12] = starved nymphs (3rd stage), 100 μg, FIG. 6A
[13] = young adult females, 100 μg, FIG. 6C
[14] = young adult males (3-7 days), 100 μg, FIG. 6B

| Compound | feeding on solvent-treated versus untreated green bean (Halyomorpha halys [1]) | repellency/deterrence across age groups and sexes (summary of Table 1) (Halyomorpha halys [2]; 100 μg concentration) | significance of repelling insect from treated bean relative to pentane control (Halyomorpha halys [2]; [4]) | significance of repelling insect from treated bean relative to pentane control (Halyomorpha halys [2]; [5]) | significance of repelling insect from treated bean relative to pentane control (Halyomorpha halys [2]; Old Adult Female, 1 μg) | significance of repelling insect from treated bean relative to pentane control (Halyomorpha halys [2]; Old Adult Female, 100 μg) | significance of repelling insect from treated bean relative to pentane control (Halyomorpha halys [2]; [6]) | significance of repelling insect from treated bean relative to pentane control (Halyomorpha halys [2]; [7]) | significance of repelling insect from treated bean relative to pentane control (Halyomorpha halys [2]; Young Adult Female, 1 μg) | significance of repelling insect from treated bean relative to pentane control (Halyomorpha halys [2]; Young Adult Female, 100 μg) | significance of repelling insect from treated bean relative to pentane control (Halyomorpha halys [2]; [8]) | significance of repelling insect from treated bean relative to pentane control (Halyomorpha halys [2]; [9]) | likelihood to feed on treated green bean (in words) (Halyomorpha halys [2]; [12]) | likelihood to feed on treated green bean (in words) (Halyomorpha halys [2]; [14]) | also measured |
| --- | --- | --- | --- | --- | --- | --- | --- | --- | --- | --- | --- | --- | --- | --- | --- |
| CCCCC [pentane] | slight preference for pentane-treated green beans over the untreated control bean | – | – | – | – | – | – | – | – | – | – | – | – | – | – |
| CC(C)=O [acetone] | significantly less likely to feed | – | – | – | – | – | – | – | – | – | – | – | – | – | – |
| ClCCl [methylene chloride (DCM), methylene chloride] | significantly less likely to feed | – | – | – | – | – | – | – | – | – | – | – | – | – | mortality (susceptibility) after exposure to solvent (Halyomorpha halys [1]; 3rd stage nymphs, adult males and females, after 2.25 hours): young adult males were the most susceptible |
| CC1(C)C2=CC(=O)CC(C)(C)[C@]23CC[C@H]1C3 [isolongifolenone] | – | deterring all groups except for old adult males | *** (p<0.001 (***)) | ** (p<0.01 (**)) | n.s. | * (p<0.05 (*)) | n.s. | n.s. | n.s. | *** (p<0.001 (***)) | n.s. | *** (p<0.001 (***)) | significantly less likely to feed | significantly less likely to feed | overall repellent effectiveness (conclusion) (Halyomorpha halys [2]): highly effective repellents; likelihood to feed on treated green bean (in words) (Halyomorpha halys [2]; [10]): significantly less likely to feed; also recorded: deterred; likelihood to feed on treated green bean (in words) (Halyomorpha halys [2]; [11]): significantly less likely to feed; likelihood to feed on treated green bean (in words) (Halyomorpha halys [2]; [13]): significantly less likely to feed; also recorded: deterred |
| isolongifolanone | – | significantly repellent to all age groups and sexes | – | *** (p<0.001 (***)) | – | *** (p<0.001 (***)) | – | *** (p<0.001 (***)) | – | *** (p<0.001 (***)) | – | *** (p<0.001 (***)) | significantly less likely to feed | significantly less likely to feed | overall repellent effectiveness (conclusion) (Halyomorpha halys [2]): highly effective repellents; likelihood to feed on treated green bean (in words) (Halyomorpha halys [2]; [10]): significantly less likely to feed; also recorded: deterred; likelihood to feed on treated green bean (in words) (Halyomorpha halys [2]; old adult males (13-23 days), 100 μg, FIG. 6D): significantly less likely to feed; likelihood to feed on treated green bean (in words) (Halyomorpha halys [2]; [13]): significantly less likely to feed; also recorded: deterred |
| CCO [ethanol] | Less feeding aversion | – | – | – | – | – | – | – | – | – | – | – | – | – | – |
| CCCCCCC/C=C/C=O [E-2-decenal] | – | effective at deterring old adult males | ** (p<0.01 (**)) | n.s. | n.s. | * (p<0.05 (*)) | n.s. | * (p<0.05 (*)) | n.s. | n.s. | ** (p<0.01 (**)) | n.s. | – | – | repellency/deterrence across age groups and sexes (summary of Table 1) (Halyomorpha halys [2]; 1 μg): effective at deterring Nymphs, young adult males, and old adult females; likelihood to feed on treated green bean (in words) (Halyomorpha halys [2]; young adult males (3-7 days), 1 μg, FIG. 6B): significantly less likely to feed |
| CCCCCC [hexane] | significantly less likely to feed | – | – | – | – | – | – | – | – | – | – | – | – | – | – |
| CCCCCCCCCCCCC [C-13, tridecane] | – | – | *** (p<0.001 (***)) | ** (p<0.01 (**)) | n.s. | n.s. | n.s. | * (p<0.05 (*)) | n.s. | n.s. | n.s. | * (p<0.05 (*)) | significantly less likely to feed | significantly less likely to feed | repellency/deterrence across age groups and sexes (summary) (Halyomorpha halys [2]; concentration not given, diluted in pentane): deterrent to young males and old adult males and nymphs; also recorded: deterred H. halys feeding; likelihood to feed on treated green bean (in words) (Halyomorpha halys [2]; old adult males (13-23 days), 1 μg, FIG. 6D): significantly less likely to feed; likelihood to feed on treated green bean (in words) (Halyomorpha halys [2]; [11]): significantly less likely to feed; repellency in small cage tests compared with petri dish (Halyomorpha halys [3]): decreased repellency |
